For 8 compounds, TGI results are on record in PubChem BioAssay (NCI).

Some test systems named below: HCC-2998 colon; IGROV1 ovarian; HL-60(TB) leukemia; OVCAR-4 ovarian; NCI-H460 lung; U251 CNS; SF-539 CNS; RXF 393 renal; 786-0 renal; UO-31 renal; NCI-H226 lung; T-47D breast; UACC-257 melanoma; SF-268 CNS.
What all share (assay): DTP human tumour cell line panel, 48 h

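Following 48 hours of exposure in 96-well plates, responses at five concentrations were used to interpolate endpoints linearly. Definition used: TGI = concentration required for complete inhibition of growth.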

For the compound `CC1=NN(c2nc(N)nc(/C(C#N)=C\c3ccc(-c4ccc([N+](=O)[O-])cc4)o3)n2)C(C)(C)C1`, the TGI with HCC-2998 colon is above 100 µM; in the test with IGROV1 ovarian it was above 100 µM; with HL-60(TB) leukemia, 94.7 µM; with OVCAR-4 ovarian, above 100 µM; in the test with NCI-H460 lung, above 100 µM; with U251 CNS, above 100 µM. For the same compound, the TGI in the test on SF-539 CNS, in the test on RXF 393 renal, in the test with 786-0 renal, in the test with UO-31 renal, in the test with NCI-H226 lung and in the test with T-47D breast was above 100 µM throughout. The TGI with UACC-257 melanoma and in the test with SF-268 CNS was above 100 µM each time.
Turning to `O=[N+]([O-])c1ccc(N=Nc2c(O)[nH]c3ccccc23)c([N+](=O)[O-])c1`, the TGI in the test on HCC-2998 colon is 44.1 µM; in the test with IGROV1 ovarian, 24.2 µM; in the test with HL-60(TB) leukemia, above 100 µM; in the test on OVCAR-4 ovarian, 30.7 µM; in the test on NCI-H460 lung it was 37.4 µM; in the test with U251 CNS, 47.8 µM. Besides, the TGI in the test on SF-539 CNS was 10.2 µM; in the test with RXF 393 renal it was 31.5 µM; in the test on 786-0 renal it was 28.8 µM; in the test on UO-31 renal, 36.6 µM; in the test on NCI-H226 lung, 75.5 µM; in the test with T-47D breast it was 52.8 µM. The figures for the concentration for total growth inhibition (TGI) in the test on UACC-257 melanoma and in the test on SF-268 CNS were 34.6 µM and above 100 µM, respectively.
Consider `O=C1c2c(Br)sc(Br)c2[C@@H](O)[C@H]1O`, for which the TGI in the test on HCC-2998 colon was 34.4 µM; in the test on IGROV1 ovarian, 35.7 µM; in the test with HL-60(TB) leukemia it was 28.6 µM; in the test with OVCAR-4 ovarian, 29.5 µM; in the test with NCI-H460 lung it was 31.8 µM; with U251 CNS, 20.8 µM. Besides, the TGI with SF-539 CNS is 29.3 µM; in the test with RXF 393 renal, 30 µM; in the test with 786-0 renal, 28.5 µM; with UO-31 renal it was 32.3 µM; in the test with NCI-H226 lung it was 37.7 µM; with T-47D breast, 43.7 µM. The concentration for total growth inhibition (TGI) turned out to be 29.3 µM with UACC-257 melanoma and 24.7 µM with SF-268 CNS.
As to `CC1(C)OC[C@@H]([C@@]2(COC(c3ccccc3)(c3ccccc3)c3ccccc3)CC=CC(=O)O2)O1`, the TGI is 41 µM in the test with HCC-2998 colon; 81.2 µM in the test with HL-60(TB) leukemia; above 100 µM with OVCAR-4 ovarian; above 100 µM in the test with NCI-H460 lung; above 100 µM in the test with U251 CNS; above 100 µM in the test with SF-539 CNS. In addition, the TGI with RXF 393 renal was 69.5 µM; in the test on 786-0 renal it was above 100 µM; with UO-31 renal it was above 100 µM; in the test with NCI-H226 lung it was above 100 µM; in the test on T-47D breast, above 100 µM; with UACC-257 melanoma it was above 100 µM. In the test with SF-268 CNS, the TGI is above 100 µM.
On to `Oc1ccccc1C=Nc1ccc(-c2nc3ccccc3s2)cc1`, for which the TGI was 45.4 µM in the test with HCC-2998 colon; above 100 µM in the test on IGROV1 ovarian; 91.2 µM in the test on HL-60(TB) leukemia; above 100 µM in the test on OVCAR-4 ovarian; 83.5 µM in the test with NCI-H460 lung; above 100 µM in the test on U251 CNS. Moreover, the TGI was above 100 µM in the test with SF-539 CNS; above 100 µM with RXF 393 renal; above 100 µM with 786-0 renal; above 100 µM in the test with UO-31 renal; 99.1 µM in the test with NCI-H226 lung; 84.8 µM in the test on T-47D breast. In addition, the TGI is 67.5 µM in the test on UACC-257 melanoma and above 100 µM in the test on SF-268 CNS.
Turning to `COC(=O)c1c(O)ccc2c1c1cc3ccccc3c(O)c1n2CCc1ccc(OC)c(OC)c1`, the TGI was 86.8 µM with HCC-2998 colon; above 100 µM in the test on IGROV1 ovarian; above 100 µM in the test on HL-60(TB) leukemia; above 100 µM in the test on OVCAR-4 ovarian; above 100 µM in the test with NCI-H460 lung; above 100 µM in the test with U251 CNS. Also, the TGI in the test with SF-539 CNS, with RXF 393 renal, in the test with 786-0 renal, with UO-31 renal, with NCI-H226 lung and in the test with T-47D breast was above 100 µM each time. For the same compound, the TGI in the test on UACC-257 melanoma and with SF-268 CNS was above 100 µM in each case.
As for `COC(=O)c1c(O)ccc2c1c1c(n2Cc2cc(OC)cc(OC)c2)C(=O)c2ccccc2C1=O`, the TGI in the test with HCC-2998 colon is 5.73 µM; in the test on IGROV1 ovarian, 22 µM; in the test with HL-60(TB) leukemia it was 39.4 µM; with OVCAR-4 ovarian, 50.7 µM; in the test on NCI-H460 lung, 19 µM; in the test on U251 CNS, 28.2 µM. In addition, the TGI in the test with SF-539 CNS is 25.9 µM; in the test on RXF 393 renal, 45.6 µM; in the test on 786-0 renal it was 21.4 µM; in the test with UO-31 renal, 40.5 µM; in the test on NCI-H226 lung, 39.3 µM; in the test on T-47D breast it was 50.5 µM. For the same compound, the TGI is above 100 µM in the test on UACC-257 melanoma and 41.2 µM in the test with SF-268 CNS.
Take `CN1CCC(C(O)(c2ccccc2)c2ccc(Br)cc2)CC1` (stereo unspecified): the TGI with HCC-2998 colon is 25.1 µM; in the test with IGROV1 ovarian it was above 100 µM; in the test with HL-60(TB) leukemia it was 66.5 µM; in the test on OVCAR-4 ovarian, above 100 µM; in the test with NCI-H460 lung it was 62.5 µM; in the test with U251 CNS, 43.1 µM. Also, the total growth inhibition concentration (TGI) is 32.2 µM in the test on SF-539 CNS; 64.4 µM in the test on RXF 393 renal; 27.5 µM with 786-0 renal; 33.1 µM in the test on UO-31 renal; 59.5 µM in the test on NCI-H226 lung; 78.3 µM in the test with T-47D breast. Also, the TGI in the test on UACC-257 melanoma is 29.7 µM; in the test with SF-268 CNS it was above 100 µM.

One may read the TGI as the concentration at which net growth stops. Higher therefore signals lower sensitivity of the cells.
